{
  "source": "patent US20220071996A1",
  "about": "“ORAL FORMULATIONS OF BRANAPLAM” (NOVARTIS AG, priority 2018, published 2022)",
  "key": {"[1]": {"experiment": "phase solubility of branaplam in 2-hydroxypropyl-beta-cyclodextrin solutions", "assay_type": "physicochemical", "settings": "room temperature"}, "[2]": {"test_system": "infants with Type I Spinal Muscular Atrophy", "experiment": "open-label first-in-human proof of concept study of oral branaplam", "assay_type": "in vivo", "procedure": "Clinical Trial: An Open-Label Multi-Part First-In-Human Proof of Concept Study of Oral Branaplam in Infants with Type I Spinal Muscular Atrophy. • Part 1: The aim of part one of this study was to determine the safety and tolerability of ascending weekly doses and to estimate the maximum tolerated dose (MTD) of oral/enteral branaplam in infants with Type 1 SMA. All patients had exactly 2 copies of the SMN2 gene. • In part one of the study, patients were dosed once weekly with branaplam. The branaplam doses were escalated in subsequent cohorts until MTD was determined or when PK results confirmed that the MTD could not be reached due to a potential pharmacokinetic exposure plateau at higher doses. A decision to dose escalate the next cohort was made after safety data had been collected for 14 days following the first dose. Patients completing 13 weeks of treatment were considered to have completed the study. The starting dose was 6 mg/m^2 (approximately 0.3125 mg/kg). Subsequent doses were 12 mg/m^2, 24 mg/m^2, 48 mg/m^2 and 60 mg/m^2 (approximately 0.625 mg/kg, 1.25 mg/kg, 2.5 mg/kg and 3.125 mg/kg, respectively). Each cohort had 2-3 patients. All doses are of branaplam in free form. 14 patients were enrolled in Part 1; 13 patients were exposed to branaplam. The duration of exposure ranged from 4-33 months, 7 patients remain in the study. Six of the 7 patients are receiving 60 mg/m^2, 1 patient is receiving 48 mg/m^2.\nPreliminary Safety Results • AEs/SAEs: 455 AEs were reported in the 13 patients; the vast majority were attributed to the underlying disease. Seventy-nine SAEs occurred associated with 59 hospitalizations of which 39 of the 59 hospitalizations were for respiratory events or infections. • Deaths: A total of five patients have died, all from ventilatory failure due to their underlying disease.\nPart 2 of the study will enroll patients into 2 cohorts: cohort 1 at a 0.625 mg/kg dose and cohort 2 at a 2.5 mg/kg dose. The selected dose levels of 0.625 mg/kg and 2.5 mg/kg are based on all safety data from Part 1, as well as, all data from chronic juvenile toxicity studies available at the time of initiation of Part 2. Six to 10 patients will be enrolled in cohorts 1 and 2. A total of a minimum of 12 and maximum of 20 patients will be enrolled and treated for 52 weeks. • Starting dose: The dose of 0.625 mg/kg (corresponding to 12 mg/m^2) is chosen as a starting dose in Part 2 based on safety and preliminary efficacy data collected in Part 1 of the study. Indeed, following an USM treatment with branaplam continued but at a reduced dose of 6 mg/m^2 (0.3125 mg/kg) for all patients who had completed the initial 13 weeks of treatment. This dose was predicted to be efficacious based upon the preliminary clinical (CHOP INTEND) response of patients in Cohort 1. […] For that reason and also given the preliminary efficacy data collected in patients treated with branaplam at 12 mg/m^2 (0.625 mg/kg) it was decided to take this dose as a starting dose in Part 2. • Second dose: The dose of 2.5 mg/kg (corresponding to 48 mg/m^2) is selected as the second dose in Part 2 being 4-fold higher than the starting dose of 0.625 mg/kg (corresponding to 12 mg/m^2). The difference between 0.625 mg/kg and 2.5 mg/kg is considered to be sufficient to ensure appropriate separation in terms of systemic branaplam exposure and potentially also of efficacy endpoints."}, "[3]": {"experiment": "pH-dependent stability and compatibility with preservatives", "assay_type": "physicochemical"}, "[4]": {"experiment": "measured log P of branaplam", "assay_type": "physicochemical"}, "[5]": {"test_system": "juvenile dog", "experiment": "52-week chronic juvenile dog study", "assay_type": "in vivo"}},
  "data": [
    {"compound": "CC1(C)CC(Oc2ccc(-c3ccc(-c4cn[nH]c4)cc3O)nn2)CC(C)(C)N1", "note": "[branaplam, 5-(1H-pyrazol-4-yl)-2-(6-((2,2,6,6-tetramethylpiperidin-4-yl)oxy)pyridazin-3-yl)phenol]", "values": [
      {"measurement": "branaplam dissolved using 17.5% HP-b-CD", "setting": "[1]", "value": "about 10 mg/mL"},
      {"measurement": "decrease of CHOP INTEND scores", "setting": "[2]; 13 weeks of treatment", "value": "no significant decrease was observed in any patient"},
      {"measurement": "Deaths (patients)", "setting": "[2]; all from ventilatory failure due to underlying disease", "value": "five"},
      {"measurement": "AEs reported", "setting": "[2]; human, in vivo", "value": 455},
      {"measurement": "hospitalizations associated with SAEs", "setting": "[2]; human, in vivo", "value": 59},
      {"measurement": "hospitalizations for respiratory events or infections", "setting": "[2]; human, in vivo", "value": 39},
      {"measurement": "Clinical status", "setting": "[2]; in vivo", "value": "do not follow the normal disease course for Type 1 SMA patients"},
      {"measurement": "SAEs", "setting": "[2]; in vivo", "value": "Seventy-nine"},
      {"measurement": "patients who reached a CHOP INTEND score of >36", "setting": "[2]; in vivo", "value": "Eight"},
      {"measurement": "patients without feeding support after more than one year of treatment", "setting": "[2]; in vivo", "value": "six"},
      {"measurement": "patients without feeding support after more than two years of treatment", "setting": "[2]; in vivo", "value": "five"},
      {"measurement": "safety events following dose reduction", "setting": "[2]; in vivo", "value": "decrease of motor skills, generalized motor weakness and increased respiratory muscle weakness"},
      {"measurement": "treated patients without feeding support at around 8 months of age", "setting": "[2]; in vivo", "value": "Ten"},
      {"measurement": "dose limiting toxicity", "setting": "[2]; in vivo, po", "value": "No dose limiting toxicity was observed"},
      {"measurement": "Death or permanent ventilation endpoint", "setting": "[2]; natural history median age 13.5 months", "value": "majority of treated patients have not met this endpoint"},
      {"measurement": "HINE Section 2: patients who achieved independent sitting", "setting": "[2]; of the 11 patients evaluated", "value": "one"},
      {"measurement": "patients with progressive and substantial increase of CHOP INTEND scores", "setting": "[2]; po, 2184 h", "value": 7},
      {"measurement": "patients without any ventilatory support with BiPAP", "setting": "[2]; treated for more than two years", "value": "Four"},
      {"measurement": "pH-dependent stability", "setting": "[3]", "value": "poor stability under pH 4"},
      {"measurement": "compatibility with potassium sorbate", "setting": "[3]; preservative potassium sorbate", "value": "incompatibility with potassium sorbate"},
      {"measurement": "logP", "setting": "[4]", "value": 2.6},
      {"measurement": "nerve findings", "setting": "[5]", "value": "findings of nerve degeneration"}
    ]}
  ]
}
